Measurements as given in patent publication US11427567B2, “Imidazolyl pyrimidinylamine compounds as CDK2 inhibitors” (Incyte Corporation, priority 2019, dated 2022).

The compounds below were run against CDK2/Cyclin E1 (Homo sapiens (Human), UniProt P24941) (assay: CDK2/Cyclin E1 HTRF enzyme activity assay (Example A)). Conditions: 1 mM ATP.
Assay type: biochemical
Description: Assays were conducted in white 384-well polystyrene plates in a final reaction volume of 8 μL. […] HTRF signals were read after 1 hour at room temperature on a PHERAstar FS plate reader (BMG Labtech). Data was analyzed with IDBS XLFit and GraphPad Prism 5.0 software using a three or four parameter dose response curve to determine IC50 for each compound.

Row | Compound | IC50 [nM]
1 | Cc1nccc(-n2cnc(-c3nc(NC4CCN(S(C)(=O)=O)CC4)ncc3C(F)(F)F)c2)c1Cl [Example 296, 4-(1-(3-Chloro-2-methylpyridin-4-yl)-1H-imidazol-4-yl)-N-(1-(methylsulfonyl)piperidin-4-yl)-5-(trifluoromethyl)pyrimidin-2-amine] | ≤ 50
2 | Cc1nnn(C)c1-c1ccc(-n2cnc(-c3nc(NC4CCN(S(C)(=O)=O)CC4)ncc3C(F)(F)F)c2)c(Cl)c1 [Example 120, 4-(1-(2-Chloro-4-(1,4-dimethyl-1H-1,2,3-triazol-5-yl)phenyl)-1H-imidazol-4-yl)-N-(1-(methylsulfonyl)-piperidin-4-yl)-5-(trifluoromethyl)-pyrimidin-2-amine] | ≤ 50
3 | CS(=O)(=O)N1CCC(Nc2ncc(C(F)(F)F)c(-c3cn(-c4cccc(-c5cccnc5)c4Cl)cn3)n2)CC1 [Example 97, 4-(1-(2-chloro-3-(Pyridin-3-yl)phenyl)-1H-imidazol-4-yl)-N-(1-(methylsulfonyl)piperidin-4-yl)-5-(trifluoromethyl) pyrimidin-2-amine] | ≤ 50
4 | CS(=O)(=O)N1CCC(Nc2ncc(C(F)(F)F)c(-c3cn(-c4ccc(CN5C6CCC5COC6)cc4Cl)cn3)n2)CC1 [Example 215, 4-(1-(4-((3-Oxa-8-azabicyclo[3.2.1]-octan-8-yl)methyl)-2-chlorophenyl)-1H-imidazol-4-yl)-N-(1-(methylsulfonyl)-piperidin-4-yl)-5-(trifluoromethyl)-pyrimidin-2-amine] | ≤ 50
5 | Cc1nc(-c2nc(N[C@H]3CCN(S(C)(=O)=O)C[C@H]3F)ncc2C(F)(F)F)cn1-c1ccc(N2CCC(N(C)C)CC2)cc1F [Example 118, 4-(1-(4-(4-(Dimethylamino)piperidin-1-yl)-2-fluorophenyl)-2-methyl-1H-imidazol-4-yl)-N-((3R,4S)-3-fluoro-1-(methylsulfonyl)piperidin-4-yl)-5-(trifluoromethyl)pyrimidin-2-amine] | ≤ 50
6 | Cc1ccc(-n2cnc(-c3nc(NC4CCN(S(C)(=O)=O)CC4)ncc3C(F)(F)F)c2)c(C#N)n1 [Example 36, 6-Methyl-3-(4-(2-((1-(methylsulfonyl)piperidin-4-yl)amino)-5-(trifluoromethyl)pyrimidin-4-yl)-1H-imidazol-1-yl)picolinonitrile] | ≤ 50
7 | CS(=O)(=O)N1CCC(Nc2ncc(C(F)(F)F)c(-c3cn(-c4ccc(CO)cc4Cl)cn3)n2)CC1 [Example 231, (3-Chloro-4-(4-(2-((1-(methylsulfonyl)piperidin-4-yl)amino)-5-(trifluoromethyl)pyrimidin-4-yl)-1H-imidazol-1-yl)phenyl)methanol] | ≤ 50
8 | CS(=O)(=O)N1CCC(Nc2ncc(C(F)(F)F)c(-c3cn(-c4ccc(C#N)nc4C(F)(F)F)cn3)n2)CC1 [Example 99, 5-(4-(2-((1-(Methylsulfonyl)piperidin-4-yl)amino)-5-(trifluoromethyl)pyrimidin-4-yl)-1H-imidazol-1-yl)-6-(trifluoromethyl)picolinonitrile] | ≤ 50
9 | COC1CN(Cc2ccc(-n3cnc(-c4nc(NC5CCN(S(C)(=O)=O)CC5)ncc4C(F)(F)F)c3)c(Cl)c2)C1 [Example 195, 4-(1-(2-Chloro-4-((3-methoxyazetidin-1-yl)methyl)phenyl)-1H-imidazol-4-yl)-N-(1-(methylsulfonyl)-piperidin-4-yl)-5-(trifluoromethyl)-pyrimidin-2-amine] | ≤ 50
10 | CC1(NCc2cccc(-n3cnc(-c4nc(NC5CCN(S(C)(=O)=O)CC5)ncc4C(F)(F)F)c3)c2Cl)CCOCC1 [Example 79, 4-(1-(2-Chloro-3-(((4-methyltetrahydro-2H-pyran-4-yl)amino)methyl)phenyl)-1H-imidazol-4-yl)-N-(1-(methylsulfonyl)piperidin-4-yl)-5-(trifluoromethyl)pyrimidin-2-amine] | ≤ 50
11 | CS(=O)(=O)N1CCC(Nc2ncc(C(F)(F)F)c(-c3cn(-c4c(Cl)cccc4C#N)cn3)n2)CC1 [Example 2, 3-Chloro-2-(4-(2-((1-(methylsulfonyl)piperidin-4-yl)amino)-5-(trifluoromethyl)pyrimidin-4-yl)-1H-imidazol-1-yl)benzonitrile] | ≤ 50
12 | CN1CCN(c2nccc(-n3cnc(-c4nc(NC5CCN(S(C)(=O)=O)CC5)ncc4C(F)(F)F)c3)c2Cl)CC1 [Example 319, 4-(1-(3-Chloro-2-(4-methylpiperazin-1-yl)pyridin-4-yl)-1H-imidazol-4-yl)-N-(1-(methylsulfonyl)piperidin-4-yl)-5-(trifluoromethyl)pyrimidin-2-amine] | ≤ 50
13 | COc1nccc(-n2cnc(-c3nc(N[C@H]4CCN(S(C)(=O)=O)C[C@H]4F)ncc3C(F)(F)F)c2)c1C#N [Example 297, 4-(4-(2-(((3R,4S)-3-Fluoro-1-(methylsulfonyl)piperidin-4-yl)amino)-5-(trifluoromethyl)pyrimidin-4-yl)-1H-imidazol-1-yl)-2-methoxynicotinonitrile] | ≤ 50
14 | CS(=O)(=O)N1CC[C@@H](Nc2ncc(C(F)(F)F)c(-c3cn(-c4ccc(C#N)cc4Cl)cn3)n2)[C@H](F)C1 [Example 173, 3-Chloro-4-(4-(2-(((3R,4R)-3-fluoro-1-(methylsulfonyl)-piperidin-4-yl)-amino)-5-(trifluoro-methyl)pyrimidin-4-yl)-1H-imidazol-1-yl)benzonitrile] | ≤ 50
15 | CS(=O)(=O)N1CCC(Nc2ncc(C(F)(F)F)c(-c3cn(-c4ccc(CN5CCCC5)cc4Cl)cn3)n2)CC1 [Example 178, 4-(1-(2-Chloro-4-(pyrrolidin-1-ylmethyl)phenyl)-1H-imidazol-4-yl)-N-(1-(methylsulfonyl)piperidin-4-yl)-5-(trifluoromethyl)pyrimidin-2-amine] | ≤ 50
16 | Cc1ccc(-n2cnc(-c3nc(NC4CCN(S(C)(=O)=O)CC4)ncc3C(F)(F)F)c2)c(C#N)c1Cl [Example 62, 2-Chloro-3-methyl-6-(4-(2-((1-(methylsulfonyl)piperidin-4-yl)amino)-5-(trifluoromethyl)pyrimidin-4-yl)-1H-imidazol-1-yl)benzonitrile] | ≤ 50
17 | Cc1nccc(-n2cnc(-c3nc(NC4CCN(S(C)(=O)=O)CC4)ncc3C(F)(F)F)c2)c1C#N [Example 293, 2-Methyl-4-(4-(2-((1-(methylsulfonyl)piperidin-4-yl)amino)-5-(trifluoromethyl)pyrimidin-4-yl)-1H-imidazol-1-yl)nicotinonitrile] | ≤ 50
18 | CS(=O)(=O)N1CC[C@H](Nc2ncc(C(F)(F)F)c(-c3cn(-c4cccnc4C(F)(F)F)cn3)n2)[C@H](F)C1 [Example 48, N-((3R,4S)-3-Fluoro-1-(methylsulfonyl)piperidin-4-yl)-5-(trifluoromethyl)-4-(1-(2-(trifluoromethyl)pyridin-3-yl)-1H-imidazol-4-yl)pyrimidin-2-amine] | ≤ 50

Results, then the compound that gave them:

Row | IC50 [nM] | Compound
19 | ≤ 50 | CN1CCN(CCc2cccc(-n3cnc(-c4nc(NC5CCN(S(C)(=O)=O)CC5)ncc4C(F)(F)F)c3)c2Cl)CC1 [Example 464, 4-(1-(2-Chloro-3-(2-(4-methylpiperazin-1-yl)ethyl)phenyl)-1H-imidazol-4-yl)-N-(1-(methylsulfonyl)piperidin-4-yl)-5-(trifluoromethyl)pyrimidin-2-amine]
20 | ≤ 50 | CCN1CCN(Cc2cc(F)c(-n3cnc(-c4nc(N[C@@H]5CCN(S(C)(=O)=O)C[C@H]5F)ncc4C(F)(F)F)c3)c(F)c2)CC1 [Example 392, 4-(1-(4-((4-Ethylpiperazin-1-yl)methyl)-2,6-difluorophenyl)-1H-imidazol-4-yl)-N-((3R,4R)-3-fluoro-1-(methyslulfonyl)piperidin-4-yl)-5-(trifluoromethyl)pyrimidin-2-amine]
21 | ≤ 50 | C[C@@]1(O)CCN(Cc2cccc(-n3cnc(-c4nc(NC5CCN(S(C)(=O)=O)CC5)ncc4C(F)(F)F)c3)c2C(F)(F)F)C1 [Example 381, (R)-3-Methyl-1-(3-(4-(2-((1-(methylsulfonyl)piperidin-4-yl)amino)-5-(trifluoromethyl)pyrimi-din-4-yl)-1H-imidazol-1-yl)-2-(trifluoromethyl)benzyl) pyrrolidin-3-ol]
22 | ≤ 50 | Cn1cc(S(=O)(=O)N2CC[C@@H](Nc3ncc(C(F)(F)F)c(-c4cn(CC(C)(C)O)cn4)n3)[C@H](F)C2)cn1 [Example 336, 1-(4-(2-(((3R,4R)-3-Fluoro-1-((1-methyl-1H-pyrazol-4-yl)sulfonyl)piperidin-4-yl)amino)-5-(trifluoromethyl)pyrimidin-4-yl)-1H-imidazol-1-yl)-2-methylpropan-2-ol]
23 | ≤ 50 | Cn1ccc(S(=O)(=O)N2CC[C@@H](Nc3ncc(C(F)(F)F)c(-c4cn(CC(C)(C)O)cn4)n3)[C@H](F)C2)n1 [Example 335, 1-(4-(2-(((3R,4R)-3-Fluoro-1-((1-methyl-1H-pyrazol-3-yl)sulfonyl)piperidin-4-yl)amino)-5-(trifluoromethyl)pyrimidin-4-yl)-1H-imidazol-1-yl)-2-methylpropan-2-ol]
24 | ≤ 50 | COC1CN(Cc2ccc(-n3cc(-c4nc(NC5CCN(S(C)(=O)=O)CC5)ncc4C(F)(F)F)nc3C)c(F)c2)C1 [Example 353, 4-(1-(2-Fluoro-4-((3-methoxyazetidin-1-yl)methyl)phenyl)-2-methyl-1H-imidazol-4-yl)-N-(1-(methylsulfonyl)piperidin-4-yl)-5-(trifluoromethyl)pyrimidin-2-amine]
25 | ≤ 50 | CS(=O)(=O)N1CC[C@H](Nc2ncc(C(F)(F)F)c(-c3cn(CC(F)F)cn3)n2)[C@H](F)C1 [Example 330, 4-(1-(2,2-Difluoroethyl)-1H-imidazol-4-yl)-N-((3R,4S)-3-fluoro-1-(methylsulfonyl)piperidin-4-yl)-5-(trifluoromethyl)pyrimidin-2-amine]
26 | ≤ 50 | CS(=O)(=O)N1CCC(Nc2ncc(C(F)(F)F)c(-c3cn(-c4cccc(CNC5CCOCC5)c4Cl)cn3)n2)CC1 [Example 368, 4-(1-(2-Chloro-3-(((tetrahydro-2H-pyran-4-yl)amino)methyl)phenyl)-1H-imidazol-4-yl)-N-(1-(methylsulfonyl)piperidin-4-yl)-5-(trifluoromethyl)pyrimi-din-2-amine]
